Source: the Kinase Knowledgebase extract (Sharma et al. 2016)
pIC50: −log10 of the molar value.

Legend:
EGFR = EGFR (UniProt P00533); conditions: for inhibition: concentration not given here
EGFR (human) [1] = target: EGFR (human) (UniProt P00533); conditions: mda231
EGFR (human) [2] = target: EGFR (human) (UniProt P00533); conditions: ht-29
EGFR (human) [3] = target: EGFR (human) (UniProt P00533); conditions: a431
EGFR (murine) [4] = target: EGFR (murine) (UniProt P00533); conditions: fibroblast
Chain of EGFR (murine) (P00533 whole entry, looked up): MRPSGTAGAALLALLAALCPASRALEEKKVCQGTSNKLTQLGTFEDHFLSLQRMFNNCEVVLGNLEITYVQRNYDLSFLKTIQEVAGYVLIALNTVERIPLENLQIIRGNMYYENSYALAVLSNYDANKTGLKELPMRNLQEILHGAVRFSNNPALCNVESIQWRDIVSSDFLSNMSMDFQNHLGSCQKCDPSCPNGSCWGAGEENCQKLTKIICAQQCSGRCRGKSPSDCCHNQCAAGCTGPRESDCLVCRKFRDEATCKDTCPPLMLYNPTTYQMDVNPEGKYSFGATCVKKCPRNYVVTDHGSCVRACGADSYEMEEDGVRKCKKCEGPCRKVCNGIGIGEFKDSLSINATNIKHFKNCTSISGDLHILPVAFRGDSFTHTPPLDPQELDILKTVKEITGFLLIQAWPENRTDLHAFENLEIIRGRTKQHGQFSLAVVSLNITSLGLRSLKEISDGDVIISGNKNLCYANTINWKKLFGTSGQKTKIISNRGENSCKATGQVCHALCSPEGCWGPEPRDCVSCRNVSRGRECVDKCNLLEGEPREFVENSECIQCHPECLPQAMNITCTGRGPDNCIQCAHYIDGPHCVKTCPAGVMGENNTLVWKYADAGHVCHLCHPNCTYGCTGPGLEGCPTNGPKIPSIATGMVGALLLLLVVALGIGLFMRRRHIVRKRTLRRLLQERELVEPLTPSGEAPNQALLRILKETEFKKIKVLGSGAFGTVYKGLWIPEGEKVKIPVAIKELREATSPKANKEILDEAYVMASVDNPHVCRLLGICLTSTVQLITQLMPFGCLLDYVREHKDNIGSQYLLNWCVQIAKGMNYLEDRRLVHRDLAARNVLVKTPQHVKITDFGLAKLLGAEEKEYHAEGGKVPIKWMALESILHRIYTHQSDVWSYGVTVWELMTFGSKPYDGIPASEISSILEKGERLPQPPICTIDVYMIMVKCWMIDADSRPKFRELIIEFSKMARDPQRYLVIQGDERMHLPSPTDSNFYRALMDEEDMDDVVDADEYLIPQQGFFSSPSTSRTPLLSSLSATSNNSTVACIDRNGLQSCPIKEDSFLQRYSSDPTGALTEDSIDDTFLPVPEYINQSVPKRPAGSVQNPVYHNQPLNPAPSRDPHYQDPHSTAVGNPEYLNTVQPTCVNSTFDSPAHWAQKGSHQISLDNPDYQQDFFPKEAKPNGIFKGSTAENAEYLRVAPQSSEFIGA

EGFR (murine) [5] = target: EGFR (murine) (UniProt P00533); conditions: fibroblast; remark: listed apart in the source
EGFR (human) [6] = target: EGFR (human) (UniProt P00533); conditions: a549
EGFR (human) [7] = target: EGFR (human) (UniProt P00533); conditions: mda468
EGFR (human) [8] = target: EGFR (human) (UniProt P00533); conditions: mdv-7

Chain of EGFR (P00533 whole entry, looked up): as above
Chain of EGFR (human) (P00533 whole entry, looked up): as above

| SMILES | pIC50 (EGFR) | inhibition (EGFR) [%] | other results |
| --- | --- | --- | --- |
| Cn1c(S)c(CCCC(=O)O)c2ccccc21 | 4.64 | – | – |
| O=C(O)Cc1c(S)[nH]c2ccccc12 | 4.83 | – | – |
| CCOC(=O)CCc1c(S)n(C)c2ccccc12 | – | 3 | – |
| O=C(O)CCc1c(S)[nH]c2ccccc12 | 5.89 | – | – |
| CCOC(=O)Cc1c(S)n(C)c2ccccc12 | – | 4 | – |
| Cn1c(S)c(C(=O)Nc2ccccc2)c2cc(Cl)ccc21 | 5.05 | – | – |
| O=C(O)CCCc1c(S)[nH]c2ccccc12 | 5.17 | – | – |
| Cn1c(S)c(C(=O)c2ccc(C(=O)O)cc2)c2ccccc21 | 5.06 | – | – |
| NC(=O)CCc1c(S)[nH]c2ccccc12 | 4.66 | – | – |
| O=C(CCc1c(S)[nH]c2ccccc12)NCc1ccccc1 | – | 43 | – |
| CCOC(=O)CCc1c(S)[nH]c2ccccc12 | – | 10 | – |
| COC(=O)CCCc1c(S)n(C)c2ccccc12 | – | 2 | – |
| Cn1c(S)c(C(=O)Nc2ccccc2)c2ccccc21 | 6.00 | – | pIC50 (EGFR (human) [1]): 4.82; pIC50 (EGFR (human) [2]): 4.26; pIC50 (EGFR (human) [3]): 4.21; pIC50 (EGFR (murine) [4]): 4.19; pIC50 (EGFR (murine) [5]): 5.70; pIC50 (EGFR (human) [6]): 4.52; pIC50 (EGFR (human) [7]): 4.37; pIC50 (EGFR (human) [8]): 4.41 |
| COC(=O)Cc1c(S)[nH]c2ccccc12 | – | 43 | – |
| Cn1c(S)c(CCC(=O)O)c2ccccc21 | 5.07 | – | – |
| O=C(Cc1c(S)[nH]c2ccccc12)NCc1ccccc1 | 4.60 | – | – |
